{
  "source": "PubChem BioAssay (NCI)",
  "experiment_in_all_cases": "growth of human tumour cells (NCI), 48 h",
  "key": {"COLO 205 colon": {"test_system": "COLO 205 colon"}, "OVCAR-5 ovarian": {"test_system": "OVCAR-5 ovarian"}, "MALME-3M melanoma": {"test_system": "MALME-3M melanoma"}, "OVCAR-4 ovarian": {"test_system": "OVCAR-4 ovarian"}, "RPMI-8226 leukemia": {"test_system": "RPMI-8226 leukemia"}, "CCRF-CEM leukemia": {"test_system": "CCRF-CEM leukemia"}, "NCI-H460 lung": {"test_system": "NCI-H460 lung"}, "SK-MEL-2 melanoma": {"test_system": "SK-MEL-2 melanoma"}, "SR leukemia": {"test_system": "SR leukemia"}, "SF-539 CNS": {"test_system": "SF-539 CNS"}, "SF-268 CNS": {"test_system": "SF-268 CNS"}, "A498 renal": {"test_system": "A498 renal"}, "786-0 renal": {"test_system": "786-0 renal"}, "U251 CNS": {"test_system": "U251 CNS"}, "NCI-H23 lung": {"test_system": "NCI-H23 lung"}, "IGROV1 ovarian": {"test_system": "IGROV1 ovarian"}, "OVCAR-8 ovarian": {"test_system": "OVCAR-8 ovarian"}, "K-562 leukemia": {"test_system": "K-562 leukemia"}, "HT29 colon": {"test_system": "HT29 colon"}, "BT-549 breast": {"test_system": "BT-549 breast"}, "SW-620 colon": {"test_system": "SW-620 colon"}, "SN12C renal": {"test_system": "SN12C renal"}, "DU-145 prostate": {"test_system": "DU-145 prostate"}, "MCF7 breast": {"test_system": "MCF7 breast"}, "OVCAR-3 ovarian": {"test_system": "OVCAR-3 ovarian"}, "SK-MEL-28 melanoma": {"test_system": "SK-MEL-28 melanoma"}, "ACHN renal": {"test_system": "ACHN renal"}, "HCT-116 colon": {"test_system": "HCT-116 colon"}, "MDA-MB-435": {"test_system": "MDA-MB-435"}},
  "note": "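Test compounds were applied to cells in 96-well plates for 48 hours at 5 doses. The concentration for 50% growth inhibition is given as GI50. Definition used: TGI = concentration required for complete inhibition of growth.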",
  "data": [
    {"smiles": "Cn1ncc2ncc(-c3ccc4ncc(C#N)c(N5CCc6cc(F)c(Cl)cc65)c4c3)cc21", "values": [
      {"measurement": "TGI", "setting": "COLO 205 colon", "value": "> 100", "unit": "µM"},
      {"measurement": "GI50", "setting": "OVCAR-5 ovarian", "value": 3.71, "unit": "µM"},
      {"measurement": "TGI", "setting": "OVCAR-5 ovarian", "value": "> 100", "unit": "µM"},
      {"measurement": "GI50", "setting": "MALME-3M melanoma", "value": 2.14, "unit": "µM"},
      {"measurement": "TGI", "setting": "MALME-3M melanoma", "value": 14.9, "unit": "µM"},
      {"measurement": "GI50", "setting": "OVCAR-4 ovarian", "value": 2.64, "unit": "µM"},
      {"measurement": "TGI", "setting": "OVCAR-4 ovarian", "value": 31.5, "unit": "µM"},
      {"measurement": "GI50", "setting": "RPMI-8226 leukemia", "value": 3.28, "unit": "µM"},
      {"measurement": "TGI", "setting": "RPMI-8226 leukemia", "value": "> 100", "unit": "µM"},
      {"measurement": "GI50", "setting": "CCRF-CEM leukemia", "value": 4.62, "unit": "µM"},
      {"measurement": "TGI", "setting": "CCRF-CEM leukemia", "value": "> 100", "unit": "µM"},
      {"measurement": "GI50", "setting": "NCI-H460 lung", "value": 4.93, "unit": "µM"},
      {"measurement": "TGI", "setting": "NCI-H460 lung", "value": "> 100", "unit": "µM"},
      {"measurement": "GI50", "setting": "SK-MEL-2 melanoma", "value": 5.65, "unit": "µM"},
      {"measurement": "TGI", "setting": "SK-MEL-2 melanoma", "value": 37.7, "unit": "µM"},
      {"measurement": "GI50", "setting": "SR leukemia", "value": 3.67, "unit": "µM"},
      {"measurement": "TGI", "setting": "SR leukemia", "value": "> 100", "unit": "µM"},
      {"measurement": "GI50", "setting": "SF-539 CNS", "value": 3.78, "unit": "µM"},
      {"measurement": "TGI", "setting": "SF-539 CNS", "value": 61.7, "unit": "µM"},
      {"measurement": "GI50", "setting": "SF-268 CNS", "value": 4.11, "unit": "µM"},
      {"measurement": "TGI", "setting": "SF-268 CNS", "value": "> 100", "unit": "µM"},
      {"measurement": "GI50", "setting": "A498 renal", "value": 2.61, "unit": "µM"},
      {"measurement": "TGI", "setting": "A498 renal", "value": 7.7, "unit": "µM"},
      {"measurement": "GI50", "setting": "786-0 renal", "value": 4.13, "unit": "µM"},
      {"measurement": "TGI", "setting": "786-0 renal", "value": "> 100", "unit": "µM"},
      {"measurement": "GI50", "setting": "U251 CNS", "value": 5.46, "unit": "µM"},
      {"measurement": "TGI", "setting": "U251 CNS", "value": "> 100", "unit": "µM"},
      {"measurement": "GI50", "setting": "NCI-H23 lung", "value": 4.8, "unit": "µM"},
      {"measurement": "TGI", "setting": "NCI-H23 lung", "value": "> 100", "unit": "µM"},
      {"measurement": "GI50", "setting": "IGROV1 ovarian", "value": 1.22, "unit": "µM"},
      {"measurement": "TGI", "setting": "IGROV1 ovarian", "value": 4.61, "unit": "µM"},
      {"measurement": "GI50", "setting": "OVCAR-8 ovarian", "value": 4.47, "unit": "µM"},
      {"measurement": "TGI", "setting": "OVCAR-8 ovarian", "value": "> 100", "unit": "µM"},
      {"measurement": "GI50", "setting": "K-562 leukemia", "value": 4.73, "unit": "µM"},
      {"measurement": "TGI", "setting": "K-562 leukemia", "value": "> 100", "unit": "µM"},
      {"measurement": "GI50", "setting": "HT29 colon", "value": 3.82, "unit": "µM"},
      {"measurement": "TGI", "setting": "HT29 colon", "value": "> 100", "unit": "µM"},
      {"measurement": "GI50", "setting": "BT-549 breast", "value": 3.75, "unit": "µM"},
      {"measurement": "TGI", "setting": "BT-549 breast", "value": 85.6, "unit": "µM"},
      {"measurement": "GI50", "setting": "SW-620 colon", "value": 7.04, "unit": "µM"},
      {"measurement": "TGI", "setting": "SW-620 colon", "value": "> 100", "unit": "µM"},
      {"measurement": "GI50", "setting": "SN12C renal", "value": 1.93, "unit": "µM"},
      {"measurement": "TGI", "setting": "SN12C renal", "value": "> 100", "unit": "µM"},
      {"measurement": "GI50", "setting": "DU-145 prostate", "value": 4.05, "unit": "µM"},
      {"measurement": "TGI", "setting": "DU-145 prostate", "value": "> 100", "unit": "µM"},
      {"measurement": "GI50", "setting": "MCF7 breast", "value": 2.44, "unit": "µM"},
      {"measurement": "TGI", "setting": "MCF7 breast", "value": "> 100", "unit": "µM"},
      {"measurement": "GI50", "setting": "OVCAR-3 ovarian", "value": 2.66, "unit": "µM"},
      {"measurement": "TGI", "setting": "OVCAR-3 ovarian", "value": 83.6, "unit": "µM"},
      {"measurement": "GI50", "setting": "SK-MEL-28 melanoma", "value": 4.92, "unit": "µM"},
      {"measurement": "TGI", "setting": "SK-MEL-28 melanoma", "value": "> 100", "unit": "µM"},
      {"measurement": "GI50", "setting": "ACHN renal", "value": 2.49, "unit": "µM"},
      {"measurement": "TGI", "setting": "ACHN renal", "value": "> 100", "unit": "µM"},
      {"measurement": "GI50", "setting": "HCT-116 colon", "value": 9.79, "unit": "µM"},
      {"measurement": "TGI", "setting": "HCT-116 colon", "value": "> 100", "unit": "µM"},
      {"measurement": "GI50", "setting": "MDA-MB-435", "value": 3.13, "unit": "µM"},
      {"measurement": "TGI", "setting": "MDA-MB-435", "value": 11.8, "unit": "µM"}
    ]}
  ]
}
